Measured values published in publication PMC11940194, “Synthesis, Antiproliferative Activity, and ADME Profiling of Novel Racemic and Optically Pure Aryl-Substituted Purines and Purine Bioisosteres” (Biomolecules, 2025).
Read-outs that look alike come from different tables or passages of the source.

What was measured:
[1] = test system: hepatocellular carcinoma (HepG2) cells; assay: Antiproliferative MTT assay, HepG2; assay type: cell-based, human; conditions: for IC50: Homo sapiens, HepG2, 72 h, 72 h incubation, MTT, mean ± SD
In short: (§1)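 Cells grown in DMEM or MEM with 10% FBS at 37 °C, 5% CO2; tumour lines seeded at 3000 and fibroblasts at 5000 cells/well. Compounds added at 0.01 to 100 µM for 72 h, growth read by MTT. IC50 from dose–response curves by linear regression, tetraplicates, two experiments.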

[2] = test system: pancreatic ductal adenocarcinoma (CFPAC-1) cells; assay: Antiproliferative MTT assay, CFPAC-1; assay type: cell-based, human; conditions: Homo sapiens, CFPAC-1, 72 h, 72 h incubation, MTT; mean ± SD
In short: as §1

[3] = test system: MCF-7, CFPAC-1, HT-29, HepG2 tumor cell lines and HFF-1 fibroblasts; assay: Antiproliferative activity, whole cell line panel; assay type: cell-based, human; conditions: tested cell lines
Method: The human ATCC tumor cell lines breast adenocarcinoma (MCF7), colorectal carcinoma (HT-29), pancreatic ductal adenocarcinoma (CFPAC-1), hepatocellular carcinoma (HepG2), and normal skin fibroblasts (HFF) derived from ATCC (American Type Culture Collection) were cultured in Dulbecco’s Modified Eagle Medium (DMEM) or Minimum Essential Medium (MEM) supplemented with 10% fetal bovine serum (FBS), 2 mM L-glutamine, 100 U/mL penicillin, and 100 µg/mL streptomycin (Lonza, Basel, Switzerland) in a humidified atmosphere with 5% CO2 at 37 °C. For the experiment, carcinoma cell lines and normal human cell lines were seeded in 96-well microtiter plates at a density of 3000 cells per well and 5000 cells per well, respectively, depending on the doubling time of the specific cell line. The test substances were then added at fivefold, tenfold dilutions (0.01 to 100 µM), freshly prepared in the growth medium on the day of testing, and incubated for a further 72 h. After 72 h of incubation, the growth rate of the cells was determined using the MTT assay according to the manufacturer’s guidelines. […] The IC50 values were calculated from the dose–response curves using linear regression analysis. The experiment was performed in tetraplicates in two individual experiments.
Newly synthesized compounds were evaluated for their cytotoxic activity in vitro against four human cancer cell lines, including human breast adenocarcinoma (MCF-7), ductal pancreatic adenocarcinoma (CFPAC-1), colorectal carcinoma (HT-29), and hepatocellular carcinoma (HepG2), as well as on non-cancerous skin fibroblasts (HFF-1), to check for non-specific toxicity. Furthermore, 5-Fluorouracil (5-FU) was used as a reference drug. The results are expressed as 50% inhibitory concentration (IC50) values and are listed in Table 2, Table 3, Table 4 and Table 5.

[4] = test system: colorectal carcinoma (HT-29) cells; assay: Antiproliferative MTT assay, HT-29; assay type: cell-based, human; conditions: for IC50: Homo sapiens, HT-29, 72 h, 72 h incubation, MTT, mean ± SD
In short: as §1

[5] = test system: normal skin fibroblasts (HFF-1); assay: Cytotoxicity MTT assay, normal skin fibroblasts; assay type: cell-based, human; conditions: Homo sapiens, HFF-1, 72 h, 72 h incubation, mean ± SD
In short: as §1

[6] = test system: breast adenocarcinoma (MCF7) cells; assay: Antiproliferative MTT assay, MCF-7; assay type: cell-based, human; conditions: Homo sapiens, MCF7; 72 h incubation, MTT; mean ± SD
In short: as §1

[7] = test system: normal skin fibroblasts (HFF-1); parameters: method as in PMID 29271659; conditions: toxicity to normal cells; read-out: IC50 normal cells of analog without linker; cited from earlier work
[8] = Hydrolytic stability in aqueous buffer (UV/Vis); assay type: physicochemical; conditions: phosphate buffer/DMSO 99:1, pH 7.4, 1 × 10⁻⁴ mol dm⁻³, UV/Vis spectra over 24 h
Description: Solvents and chemicals, including starting purines and purine bioisosters 1–5, as well as para-substituted 2-phenyloxiranes 11–15 and phenacyl bromide 21–25, were purchased from Sigma-Aldrich (St. Louis, MO, USA), Alfa Aesar (Haverhill, MA, USA), and Fisher Scientific International (Pittsburgh, PA, USA). The progress of all reactions was monitored by thin layer chromatography on pre-coated Merck (Darmstadt, Germany) silica gel plates 60F254. The synthesized compounds were purified via column chromatography using Fluka (Buchs, Switzerland) silica gel (0.063−0.2 mm) and the appropriate solvent. All NMR spectra were recorded using a Bruker 300, 400, and 600 MHz NMR spectrometer (Bruker Biospin, Rheinstetten, Germany) in deuterated DMSO solutions, with TMS as the internal standard. The melting points of all newly synthesized compounds were determined using a Koffler (Reichert, Vienna) hot stage microscope. The ^1H (δ/ppm) and ^13C NMR (δ/ppm) spectra of compounds 26a,b–49a,b can be found in the Supporting Information (Figures S1–S48). The purity of all newly synthesized compounds was determined by elemental analysis and the elemental analysis results are within 0.5% of the theoretical values. The UV/Vis absorption spectra of compounds 40a, 45a, and 49b were measured at a concentration of 1 × 10⁻⁴ mol dm⁻³ in phosphate buffer and DMSO (99:1, v/v) at pH 7.4 using a Varian Cary 50 spectrophotometer in double-beam mode at 25 °C.
Selected 6-chloropurine (40a), 4-chloropyrrolo[2,3-d]pyrimidine (45a), and 4-chloroimidazo[4,5-c]pyridine (49b) with significant antiproliferative activity were examined for hydrolytic stability in an aqueous buffer solution.
2. UV/Vis absorption spectra of selected compounds
Figure S49. UV/Vis absorption spectra of compounds 40a (a), 45a (b), and 49b (c) recorded in phosphate buffer with 1% DMSO (99:1, v/v) at pH 7.4 (c = 1 × 10⁻⁴ mol dm⁻³). Spectra were measured immediately after sample preparation and after 24 hours to evaluate spectral stability over time.
(1 picture or pasted object on this page, not shown here)

[9] = test system: MDCKII-MDR1 cells (P-glycoprotein); assay: MDCKII-MDR1 permeability assay; assay type: in vitro ADME, canine cells with over-expressed human MDR1 gene; conditions: permeability class
Method: (§2) MDCKII-hMDR1 cells were obtained from Solvo Biotechnology, Hungary. DMEM, fetal bovine serum, Glutamax-100, Antibiotic/Antimycotic, DMSO, Dulbecco’s phosphate-buffered saline, and MEM Non-essential amino acids were purchased from Sigma (St. Louis, MO, USA). Bi-directional permeability and P-glycoprotein substrate assessments were carried out in Madin-Darby canine epithelial cells with the over-expressed human MDR1 gene (MDCKII-MDR1), coding for P-glycoprotein. Experimental procedures, as well as cell culture conditions, were the same as previously described. Briefly, compounds (10 µM, 1% DMSO v/v) in duplicate were incubated at 37 °C for 60 min with cell monolayer on 24-well Millicell inserts (Millipore, Burlington, MA, USA) with and without the P-glycoprotein inhibitor Elacridar (2 µM, International Laboratory, San Francisco, CA, USA). The inhibition of P-glycoprotein was verified by amprenavir (Moravek Biochemicals Inc, Brea, CA, USA) and monolayer integrity using Lucifer yellow (Sigma, St. Louis, MO, USA). LC-MS/MS measured compound concentrations and Lucifer yellow was measured on an Infinite F500 (Tecan, Männedorf, CH, Switzerland) using excitation of 485 nm and emission of 530 nm.
(§3) All samples were quantified using tandem mass spectrometry coupled to liquid chromatography. Samples were analyzed on a Sciex API4000 Triple Quadrupole Mass Spectrometer (Sciex, Division of MDS Inc., Toronto, Canada) coupled to a Shimadzu Nexera X2 UHPLC frontend (Kyoto, Japan). Samples were injected onto a UHPLC column (HALO2 C18, 2.1 × 20 mm, 2 µm or Luna Omega 1.6 µm Polar C18 100A, 30 × 2.1 mm) and eluted with a gradient at 50 °C. The mobile phase was composed of acetonitrile/water mixture (9/1, with 0.1% formic acid) and 0.1% formic acid in deionized water. The flow rate was 0.7 mL/min under gradient conditions, leading to a total run time of 1.5–2 min. A positive ion mode with turbo spray, an ion source temperature of 550 °C, and a dwell time of 150 ms were utilized for mass spectrometric detection. Quantitation was performed using multiple reaction monitoring (MRM) at the specific transitions for each compound.

[10] = test system: P-glycoprotein (human MDR1); assay: MDCKII-MDR1 permeability assay; assay type: in vitro ADME, canine cells with over-expressed human MDR1 gene; conditions: dog, MDCK-MDR1
Method: as §2, §3

IC50 [1] | IC50 [2] | IC50 [4] | IC50 [6] | hydrolytic stability [8] | Permeability [9] | Papp A→B at 60 min, 10 µM ([10]; 10 µM, 60 min, 37 °C) | Papp B→A at 60 min, 10 µM ([10]; 10 µM, 60 min, 37 °C) | efflux ratio at 60 min, 10 µM ([10]; <2 no efflux, >2 active efflux) | SMILES | antiproliferative activity (in words) [3] | IC50 [5] | IC50 [7] | SI (HepG2) ([1]; SI = [IC50 HFF]/[IC50 HepG2]) | SI (HT-29) ([4]; SI = [IC50 HFF]/[IC50 HT-29])
> 100 µM | > 100 µM | > 100 µM | > 100 µM | – | – | – | – | – | OCC(c1ccccc1)n1cc(Cn2cnc3c(Cl)nccc32)nn1 (stereo not drawn) [Compound 46a, 4-Chloro-1-((1-(2-hydroxy-1-phenylethyl)-1H-1,2,3-triazol-4-yl)methyl)-1H-imidazo[4,5-c]pyridine] | deprived of any activity | > 100 µM | – | – | –
> 100 µM | > 100 µM | > 100 µM | > 100 µM | – | – | – | – | – | OCC(c1ccccc1)n1cc(Cn2ccc3ccccc32)nn1 (stereo not drawn) [Compound 26a, 1-((1-(2-Hydroxy-1-phenylethyl)-1H-1,2,3-triazol-4-yl)methyl)-1H-indole] | deprived of any activity | > 100 µM | – | – | –
> 100 µM | > 100 µM | > 100 µM | > 100 µM | – | – | – | – | – | OC(Cn1cc(Cn2cnc3c(Cl)nccc32)nn1)c1ccccc1 (stereo not drawn) [Compound 46b, 4-Chloro-1-((1-(2-hydroxy-2-phenylethyl)-1H-1,2,3-triazol-4-yl)methyl)-1H-imidazo[4,5-c]pyridine] | deprived of any activity | > 100 µM | – | – | –
– | – | – | – | – | – | – | – | – | FC(F)(F)c1ccc(-n2cc(Cn3cnc4c(Cl)ncnc43)nn2)cc1 | – | – | 750 nM | – | –
– | – | 0.69 ± 0.01 µM | 19 ± 4.3 µM | hydrolytically stable | MODERATE | 2.1 ×10⁻⁶ cm/s | 60.6 ×10⁻⁶ cm/s | 29.5 | OCC(c1ccc(C(F)(F)F)cc1)n1cc(Cn2cnc3c(Cl)ncnc32)nn1 (stereo not drawn) [Compound 40a, 6-Chloro-9-((1-(2-hydroxy-1-(4-(trifluoromethyl)phenyl)ethyl)-1H-1,2,3-triazol-4-yl)methyl)-9H-purine] | submicromolar antiproliferative activity | 18 ± 0.6 µM | – | 28.1 | 26.1
> 100 µM | > 100 µM | > 100 µM | 91 ± 7.2 µM | – | – | – | – | – | OC(Cn1cc(Cn2cnc3ccccc32)nn1)c1ccccc1 (stereo not drawn) [Compound 31b, 1-((1-(2-Hydroxy-2-phenylethyl)-1H-1,2,3-triazol-4-yl)methyl)-1H-benzimidazole] | deprived of any activity | > 100 µM | – | – | –
> 100 µM | > 100 µM | > 100 µM | > 100 µM | – | – | – | – | – | OCC(c1ccccc1)n1cc(Cn2cnc3ccccc32)nn1 (stereo not drawn) [Compound 31a, 1-((1-(2-Hydroxy-1-phenylethyl)-1H-1,2,3-triazol-4-yl)methyl)-1H-benzimidazole] | deprived of any activity | > 100 µM | – | – | –
